Experimental data from patent US9926281B2 (priority 2014, dated 2018).
Read-outs that look alike come from different tables or passages of the source.

How the values were obtained:
[1] = molecular target: rnADAMTS-5 (1-564-6H) (Rattus norvegicus, UniProt Q6TY19); conditions: read-out: Rat ADAMTS-5 potency IC50
[2] = molecular target: T1, human TACE (Homo sapiens (Human), UniProt P78536); conditions: read-out: TACE potency IC50
[3] = molecular target: T2, human MMP13 (Homo sapiens (Human), UniProt P45452); conditions: read-out: hMMP-13 potency IC50
Protocol: The reaction is initiated by adding to the assay plate 520 MMP-fret substrate XV (10 μL, 4 μM) in the same buffer.

[4] = molecular target: T3, human ADAMTS-5 (Homo sapiens (Human), UniProt Q9UNA0); conditions: read-out: hADAMTS-5 potency IC50
[5] = molecular target: T2, human MMP13; conditions: read-out: hMMP-13 potency IC50; remark: listed apart in the source
Protocol: (§1) Human MMP13 is preactivated by incubated the enzyme in the same buffer complemented with 1 mM freshly prepared p-Aminophenylmercuric acetate (AMPA) for 1 hour at 37° C.

[6] = molecular target: human MMP14 (Homo sapiens (Human), UniProt P50281); conditions: read-out: hMMP-14 potency IC50
[7] = molecular target: T3, human ADAMTS-5; experiment: biochemical
Protocol: Finally, the fluorescence is read on the Envision (Perkin Elmer) after an incubation of 90 min at 37° C.

[8] = molecular target: T1, human TACE; experiment: biochemical
[9] = molecular target: T2, human MMP13; experiment: biochemical
Protocol: as §1

T1 sequence (P78536 whole entry, looked up, change not shown): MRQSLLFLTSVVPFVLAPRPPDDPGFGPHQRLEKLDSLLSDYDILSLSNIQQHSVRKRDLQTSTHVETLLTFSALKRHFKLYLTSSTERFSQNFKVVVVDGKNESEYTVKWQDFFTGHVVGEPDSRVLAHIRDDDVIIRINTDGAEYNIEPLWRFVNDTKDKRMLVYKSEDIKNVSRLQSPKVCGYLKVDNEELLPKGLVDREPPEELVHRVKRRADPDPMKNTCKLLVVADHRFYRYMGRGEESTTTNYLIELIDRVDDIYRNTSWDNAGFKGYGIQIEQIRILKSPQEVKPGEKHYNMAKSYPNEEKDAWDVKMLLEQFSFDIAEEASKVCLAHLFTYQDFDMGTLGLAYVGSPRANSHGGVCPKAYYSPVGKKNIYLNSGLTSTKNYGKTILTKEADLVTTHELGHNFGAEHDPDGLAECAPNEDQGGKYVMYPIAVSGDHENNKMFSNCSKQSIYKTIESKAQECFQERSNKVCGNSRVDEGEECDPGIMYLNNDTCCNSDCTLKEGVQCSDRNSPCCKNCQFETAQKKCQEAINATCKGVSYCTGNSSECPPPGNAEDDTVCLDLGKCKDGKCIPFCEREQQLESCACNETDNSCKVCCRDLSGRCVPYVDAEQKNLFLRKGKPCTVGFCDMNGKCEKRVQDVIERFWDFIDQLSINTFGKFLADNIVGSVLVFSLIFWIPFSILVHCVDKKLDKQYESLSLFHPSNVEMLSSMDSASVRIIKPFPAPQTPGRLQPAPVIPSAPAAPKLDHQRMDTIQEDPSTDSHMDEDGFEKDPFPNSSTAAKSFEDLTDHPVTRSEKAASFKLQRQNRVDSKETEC
T3 sequence (Q9UNA0 262-930): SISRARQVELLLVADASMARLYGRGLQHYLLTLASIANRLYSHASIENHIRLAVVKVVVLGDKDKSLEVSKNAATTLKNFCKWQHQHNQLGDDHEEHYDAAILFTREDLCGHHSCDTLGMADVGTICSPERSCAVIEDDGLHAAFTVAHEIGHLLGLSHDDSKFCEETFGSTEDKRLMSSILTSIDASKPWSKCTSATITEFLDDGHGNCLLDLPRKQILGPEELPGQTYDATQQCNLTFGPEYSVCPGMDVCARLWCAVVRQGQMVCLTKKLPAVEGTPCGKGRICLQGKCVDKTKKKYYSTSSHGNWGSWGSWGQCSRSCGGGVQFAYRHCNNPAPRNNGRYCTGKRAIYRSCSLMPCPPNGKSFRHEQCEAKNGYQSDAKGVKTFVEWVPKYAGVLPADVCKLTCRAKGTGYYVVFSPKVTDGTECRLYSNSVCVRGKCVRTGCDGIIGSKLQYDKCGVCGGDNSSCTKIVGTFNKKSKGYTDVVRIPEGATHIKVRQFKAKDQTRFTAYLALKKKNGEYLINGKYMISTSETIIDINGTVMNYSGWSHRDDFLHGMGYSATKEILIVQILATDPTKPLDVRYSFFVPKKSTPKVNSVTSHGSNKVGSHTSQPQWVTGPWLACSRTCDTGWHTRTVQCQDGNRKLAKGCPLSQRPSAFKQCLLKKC

Compound	IC50 [1] [µM]	IC50 [2] [µM]	IC50 [3] [µM]	IC50 [4] [µM]	IC50 [5] [µM]	IC50 [6] [µM]	IC50 [7] [µM]	IC50 [8] [µM]	IC50 [9] [µM]
CC1(CCC(=O)N2CCN(c3ccccc3)CC2)NC(=O)NC1=O (centres unmarked) [compound 1, 5-methyl-5-[3-oxo-3-(4-phenylpiperazin-1-yl)propyl]imidazolidine-2,4-dione]	0.73	> 20	> 20						
CC1(CCC(=O)N2CCN(c3ccc(Cl)cc3)CC2)NC(=O)NC1=O (centres unmarked) [compound 2, 5-[3-[4-(4-chlorophenyl)piperazin-1-yl]-3-oxo-propyl]-5-methyl-imidazolidine-2,4-dione]	0.361	> 17.5	2.37	0.274					
O=C1NC(=O)C(CCC(=O)N2CCN(c3ccccc3)CC2)(c2ccccc2)N1 (centres unmarked) [compound 4, 5-[3-oxo-3-(4-phenylpiperazin-1-yl)propyl]-5-phenyl-imidazolidine-2,4-dione]	0.066	> 5.5	2.52	0.114					
O=C1NC(=O)C(CCC(=O)N2CCN(c3cccc(Cl)c3)CC2)(c2ccccc2)N1 (centres unmarked) [compound 6, 5-[3-[4-(3-chlorophenyl)piperazin-1-yl]-3-oxo-propyl]-5-phenyl-imidazolidine-2,4-dione]	0.107	2.36	2.15						
Cc1ccccc1N1CCN(C(=O)CCC2(c3ccccc3)NC(=O)NC2=O)CC1 (centres unmarked) [compound 7, 5-[3-[4-(o-tolyl)piperazin-1-yl]-3-oxo-propyl]-5-phenyl-imidazolidine-2,4-dione]	0.272	> 2.93	> 20	0.272					
Cc1cccc(N2CCN(C(=O)CCC3(c4ccccc4)NC(=O)NC3=O)CC2)c1C (centres unmarked) [compound 8, 5-[3-[4-(2,3-dimethylphenyl)piperazin-1-yl]-3-oxo-propyl]-5-phenyl-imidazolidine-2,4-dione]	0.157	> 3.22	> 20	0.142					
O=C1NC(=O)C(CCC(=O)N2CCN(c3ccc4ccccc4c3)CC2)(c2ccccc2)N1 (centres unmarked) [compound 9, 5-[3-[4-(2-naphthyl)piperazin-1-yl]-3-oxo-propyl]-5-phenyl-imidazolidine-2,4-dione]	0.331	2.5	1.48	0.316					
O=C1NC(=O)C(CCC(=O)N2CCN(c3ccc(Cl)c(F)c3)CC2)(c2ccccc2)N1 (centres unmarked) [compound 10, 5-[3-[4-(4-chloro-3-fluoro-phenyl)piperazin-1-yl]-3-oxo-propyl]-5-phenyl-imidazolidine-2,4-dione]	0.041	> 2.79	0.285	0.056					
Cc1cccc(N2CCN(C(=O)CCC3(C)NC(=O)NC3=O)CC2)c1C (centres unmarked) [compound 11, 5-[3-[4-(2,3-dimethylphenyl)piperazin-1-yl]-3-oxo-propyl]-5-methyl-imidazolidine-2,4-dione]	1.17	> 20	> 20	0.988					
Cc1ccccc1N1CCN(C(=O)CCC2(C)NC(=O)NC2=O)CC1 (centres unmarked) [compound 12, 5-methyl-5-[3-[4-(o-tolyl)piperazin-1-yl]-3-oxo-propyl]imidazolidine-2,4-dione]	1.16	> 4	> 20						
Cc1cc(Cl)ccc1N1CCN(C(=O)CCC2(c3ccccc3)NC(=O)NC2=O)CC1 (centres unmarked) [compound 13, 5-[3-[4-(4-chloro-2-methyl-phenyl)piperazin-1-yl]-3-oxo-propyl]-5-phenyl-imidazolidine-2,4-dione]	0.966	1.17	> 20	0.836					
O=C1NC(=O)C(CCC(=O)N2CCN(c3ccc4cnccc4c3)CC2)(c2ccccc2)N1 (centres unmarked) [compound 14, 5-[3-[4-(6-isoquinolyl)piperazin-1-yl]-3-oxo-propyl]-5-phenyl-imidazolidine-2,4-dione]	0.784	> 4	0.366	0.897					
Cc1ccc(Cl)cc1N1CCN(C(=O)CCC2(C)NC(=O)NC2=O)CC1 (centres unmarked) [compound 16, 5-[3-[4-(5-chloro-2-methyl-phenyl)piperazin-1-yl]-3-oxo-propyl]-5-methyl-imidazolidine-2,4-dione]	0.329	0.457	> 20	0.301					
Cc1c(Cl)cccc1N1CCN(C(=O)CCC2(C)NC(=O)NC2=O)CC1 (centres unmarked) [compound 18, 5-[3-[4-(3-chloro-2-methyl-phenyl)piperazin-1-yl]-3-oxo-propyl]-5-methyl-imidazolidine-2,4-dione]	0.93	> 4	> 20	0.675					
O=C1NC(=O)C(CCC(=O)N2CCN(c3ccccc3Cl)CC2)(c2ccccc2)N1 (centres unmarked) [compound 20, 5-[3-[4-(2-chlorophenyl)piperazin-1-yl]-3-oxo-propyl]-5-phenyl-imidazolidine-2,4-dione]	1.27	> 4	> 20	1.28					
Cc1c(Cl)cccc1N1CCN(C(=O)CCC2(c3ccccc3)NC(=O)NC2=O)CC1 (centres unmarked) [compound 21, 5-[3-[4-(3-chloro-2-methyl-phenyl)piperazin-1-yl]-3-oxo-propyl]-5-phenyl-imidazolidine-2,4-dione]	0.162	2.06	> 20	0.166					
Cc1ccccc1N1CCN(C(=O)CC[C@@]2(c3ccccc3)NC(=O)NC2=O)CC1 [compound 27, (5S)-5-[3-[4-(o-tolyl)piperazin-1-yl]-3-oxo-propyl]-5-phenyl-imidazolidine-2,4-dione]	0.124	> 2		0.09	> 20	> 20			
Cc1ccc(Cl)cc1N1CCN(C(=O)CCC2(C3CC3)NC(=O)NC2=O)CC1 (centres unmarked) [compound 36, 5-[3-[4-(5-chloro-2-methyl-phenyl)piperazin-1-yl]-3-oxo-propyl]-5-cyclopropyl-imidazolidine-2,4-dione]	0.029	0.67		0.034	> 20	> 20			
C[C@H]1CN(C(=O)CCC2(C)NC(=O)NC2=O)CCN1c1ccc(Cl)c(F)c1 (stereo partly drawn) [compound 164, 5-[3-[(3S)-4-(4-chloro-3-fluoro-phenyl)-3-methyl-piperazin-1-yl]-3-oxo-propyl]-5-methyl-imidazolidine-2,4-dione]							0.236	> 20	> 20
C[C@H]1CN(C(=O)CCC2(C3CC3)NC(=O)NC2=O)CCN1c1cccc2c1cnn2C (stereo partly drawn) [compound 333, 5-cyclopropyl-5-[3-[(3S)-3-methyl-4-(1-methylindazol-4-yl)piperazin-1-yl]-3-oxo-propyl]imidazolidine-2,4-dione]							3.12	> 20	
C[C@H]1CN(C(=O)CCC2(c3ccc(C(F)(F)F)nc3)NC(=O)NC2=O)CCN1c1cc(F)cc(F)c1 (stereo partly drawn) [compound 335, 5-[3-[(3S)-4-(3,5-difluorophenyl)-3-methyl-piperazin-1-yl]-3-oxo-propyl]-5-[6-(trifluoromethyl)-3-pyridyl]imidazolidine-2,4-dione]							0.078	> 4	
COCC1(CC(C)C(=O)N2CCN(c3cncc(F)c3)[C@@H](C)C2)NC(=O)NC1=O (stereo partly drawn) [compound 364, 5-[3-[(3S)-4-(5-fluoro-3-pyridyl)-3-methyl-piperazin-1-yl]-2-methyl-3-oxo-propyl]-5-(methoxymethyl)imidazolidine-2,4-dione]							0.092	> 20	
